In patent US20240058288A1, “DRUG COCKTAIL FOR TREATMENT OF PARKINSON'S DISEASE, LEWY BODY DISEASE AND MULTIPLE SYSTEM ATROPHY” (ALETA NEUROSCIENCE, LLC, priority 2021, published 2024):
“Also recorded” adds a separate entry of the source. Like-named read-outs stand apart in the source and are kept apart here.

Columns and labels:
[1] = system: human dopaminergic neurons (iCell DopaNeurons); experiment: MPP+-induced neurotoxicity: neurite outgrowth (neurite length, branch points) of iCell DopaNeurons, Incucyte; assay type: cell-based; details: for effects on neurite outgrowth: vs MPP+ alone
Text: (§1) We conducted an in vitro study of the drugs in Table 1 to evaluate the neuroprotective effects of 44 conditions of treatment (Table 2, experiments 1-41; 51-53) against MPP+-induced neurodegeneration toxicity on human dopaminergic neurons (iCell® DopaNeurons: iPS cell-derived human midbrain floorplate dopaminergic neurons). Further combinations (Table 2, experiments 42-50 and Table 3) are also disclosed.
iCell DOPA neurons are neural floor plate-derived midbrain dopaminergic neurons generated from human induced pluripotent stem cells (iPSCs). Dopaminergic neurons, specifically those located in the floor plate-derived midbrain are implicated in neurological disorders such as Parkinson's disease, MSA and DLBD among others. Thus iCell DopaNeurons provide a highly relevant in vitro model to investigate these types of pathologies (42, 43). The iCellDopa neurons were supplied from FUJIFILM Cellular Dynamics.
(§2) Three different measurements were made in the experiments. 1. Neurite length in mm is a measure of increase in dendrite length of neurons. […] 2. neurite branching is measure of dendrite branching. […] 3. Cytolysis of the cells is a measure of cell death. […] Experimental conditions were measured relative to the results of healthy cells in the studies.
(§3) Procedure. iCell DOPA neurons were thawed and cultured following the provider's instructions in Brainphys medium+provided supplements+1% N2 supplement (Stemcell Technologies)+penicillin/streptomycin+Laminin. They were plated at 20000 cells per well of a 384 well plate (pre-coated with poly-D-lysine and Laminin) in 70 μL of growth medium. Cells were incubated at 37° C./5% CO2 in a humidified cell culture incubator. Half of the culture medium was changed twice a week.
(§4) MPP+-induced neurotoxicity: 24 hours after neuronal plating, half of the medium was removed and the test compounds were applied with MPP+ treatment, both concentrated at 4×, were added to the wells. For each condition, six aliquots were added, corresponding to columns A-F in Table 2. Except for the NT/NT row, in each row, either the compound indicated dissolved in its vehicle noted in Table 1 was added, or only a vehicle was added as indicated. Column F is an indicator of whether MPP+ was added. If not, only the medium was added.
(§5) For the evaluation of conditions 1-28, Neurite outgrowth was followed for subsequent 48 hours using an Incucyte Zoom platform with one phase contrast image every 4 hours, using a 20× objective. After 48 hours, the medium containing test compounds and MPP+ was removed and replaced by fresh medium containing a fluorescent cytolysis marker (red fluorescence) and a live cell marker (green fluorescence). For the evaluation of conditions 29-53, Neurite outgrowth was followed similarly for subsequent 72 hours after MPP+ was added.
Each condition 1-41 and 51-53 was repeated in 8 wells of a 384 well plate, that is, each test condition studied in Table 2 was repeated eight times. NT/NT were cells in the standard medium only. Control/NT are the cells in the vehicle (as described above), with and without MPP+.
Assay endpoints and data analysis. Phase contrast images were analyzed at each time point to determine the neurite length and number of branch points per mm^2. Kinetic data was plotted and kinetics were normalized by subtracting the value of the first data point (at time of treatment), allowing to measure changes in neurite outgrowth only from the onset of the treatment, starting at zero. Area Under Curve (AUC) of kinetic data was obtained and used for plotting compound's effects and perform statistical analyzes.
(§6) Statistical analysis. We used one-way ANOVA followed by Bonferroni's multiple comparisons test.

[2] = system: human dopaminergic neurons (iCell DopaNeurons); experiment: MPP+-induced neurotoxicity: cytolysis of iCell DopaNeurons; assay type: cell-based
Text: as §1, §2, §3, §4, §5
Data was normalized to control conditions as there is basal cytolysis in the cell culture after thawing.
Fluorescently immuno-stained cells were imaged on a high content imaging platform. Individual segmentation of cells was performed by image analysis of the MAP2 and NeuN staining. The number of neurons and the neurite length were measured. The percentage of cytolyzed cells was also calculated.
as §6

[3] = system: CXCL1/GROα; experiment: LPS/ATP-induced CXCL1/GROα secretion by human microglia cells (Luminex); assay type: cell-based
Text: (§7) In addition to the studies discussed above assessing activity of combinations of drugs on MPP+-induced neurodegeneration toxicity on human dopaminergic neurons and measuring neuronal growth and neurite branching, we also assessed combinations of drugs in reducing lipopolysaccharide (LPS, from E. coli)-induced neuroinflammation.
(§8) Lipopolysaccharides are important outer membrane components of gram-negative bacteria such as E. coli and salmonella. They are large amphipathic glycoconjugates that typically consist of a lipid domain (hydrophobic) attached to a core oligosaccharide and a distal polysaccharide. LPS binds to Toll-like receptor 4 (TLR4) and activates microglia (51) which in turn increases secretion of pro-inflammatory cytokines such as interleukin-6 (IL-6), tumor necrosis factor-α (TNF-α), and CXCL1/GROα.
(§9) Microglia cells were obtained from an iCell® Microglia kit, 01279 (Catalogue N° R1131) from FUJIFILM Cellular Dynamics. We followed the manufacturer's protocol for activation of the microglial cells with LPS/ATP to subsequently measure the effect of the study drugs on pro-inflammatory cytokines IL-6, TNF-α and CXCL1/GROα.
(§10) All cell culture procedures were performed in aseptic conditions, under a laminar flow hood. Microglia were thawed and cultured following the provider's instructions. The microglia were plated at 50,000 cells per well of a Corning Primaria 96 well plate (Ref N° 353872) in 100 μL of growth medium. Cells were incubated at 37° C./5% CO2 in a humidified cell culture incubator.
(§11) Three days after cell plating, the test or reference substances (25 μL of solutions at 5×) were applied 1 hour before LPS and ATP stimulation.
(§12) One hour later, 12.5 μL of test or reference substances were added again at 2× concentrated followed by 12.5 μL of LPS at 12× concentration. Fifty microliters of ATP were introduced at 4× concentration, 5 h 30 min after incubation with LPS.
(§13) Six hours after LPS incubation, the supernatant of each well was collected and centrifugated at 1000 g for 10 minutes to remove the cells and debris.
(§14) Fifty microliters of supernatant from NT and LPS+ATP-treated wells were used to determine cytokine secretion (IL-6, TNF-α, CXCL1/GROα) by Luminex platform according to the provider's instructions. Samples were diluted prior to the assay to fit within the standard range if needed. Three wells were tested per each condition (Table 10). Cytokines levels in the supernatant were expressed in pg/mL. The data was analyzed using a One-Way ANOVA followed by Bonferroni test.

[4] = system: TNF-α; experiment: LPS/ATP-induced TNF-α secretion by human microglia cells (Luminex); assay type: cell-based
Text: as §7, §8, §9, §10, §11, §12, §13, §14

[5] = system: IL-6; experiment: LPS/ATP-induced IL-6 secretion by human microglia cells (Luminex); assay type: cell-based; details: for anti-inflammatory effect on activated microglia, all three cytokines: LPS and ATP, IL-6, TNF-α, GROα together (FIG. 8, 9, 10)
Text: as §7, §8, §9, §10, §11, §12, §13, §14

[6] = chronic PD and DLBD mouse models; cited from earlier work
[7] = system: IL-1β; experiment: LPS/ATP-induced IL-1β in human microglia cells; assay type: cell-based; details: as compared with […] distilled water in presence of LPS and ATP
[8] = system: PrP; details: cell-free aggregation assays, chronically and acutely infected cell cultures; cited from earlier work
[9] = pre-treatment 50 mg/kg for 3 days; cited from earlier work
[10] = MPP+ 100 μM, Table 6.1 (FIG. 6A), followed 72 hours, PCI 30 μM
[11] = MPP+ 100 μM, Table 7.1 (FIG. 6B), followed 72 hours, PCI 30 μM
[12] = MPP+ 100 μM, Table 8.1 (FIG. 6C), PCI 30 μM
[13] = LPS 100 ng/mL + ATP 5 mM, 6 h after LPS, TAK-242 2 μM, MCC950 10 μM
[14] = LPS 100 ng/mL + ATP 5 mM, 6 h after LPS, three wells, TAK-242 2 μM, MCC950 10 μM
[15] = as compared with […] distilled water in presence of LPS and ATP

## COc1cc2nc(N3CCN(C(=O)C4CCCO4)CC3)nc(N)c2cc1OC (stereo not drawn) [TZ, Terazosin]
[1]; [10]
  Neurite length data, plate 1, Mean: 1102.2 mm/mm^2
[1]; [11]
  Neurite Branching Data, Plate 1, Mean ± S.D.: 31244.4 ± 12478.9 per mm^2
[1]; MPP+ 100 μM
  effects on neurite outgrowth: no significant effects
[2]; [12]
  Cytolysis, %, Plate 1, Mean ± S.D.: 72.78 ± 2.29%

## CC(C)[C@H](NC(=O)c1ccc2ccccc2n1)C(=O)N[C@@H](CC(=O)O)C(=O)COc1c(F)cccc1F [PCI/MPP+, Q-VD-OPh]
[1]
  Neurite Branching Data, Plate 1, Mean ± S.D.: 38456.3 ± 11570.7 per mm^2
  Neurite Branching Data, Plate 2, Mean ± S.D.: 52610.1 ± 16660.1 per mm^2
  Neurite length data, plate 1, Mean: 1301.0 mm/mm^2
  Neurite length, plate 2, Mean ± S.D.: 1430.1 ± 321.7 mm/mm^2
[2]
  Cytolysis, %, Plate 1, Mean ± S.D.: 65.56 ± 1.89%
  Cytolysis, %, Plate 2, Mean ± S.D.: 67.93 ± 3.52%

## Sodium Phenylbutyrate [PBA]
[3]; [13]
  CXCL1/GROα in supernatant, Replicate 1: 627.29 pg/mL
  CXCL1/GROα in supernatant, Replicate 2: 383.60 pg/mL
  CXCL1/GROα in supernatant, Replicate 3: 476.49 pg/mL
[3]; [14]
  CXCL1/GROα in supernatant, Mean ± S.D.: 495.79 ± 122.99 pg/mL
[4]; [13]
  TNF-α in supernatant, Replicate 1: 32.67 pg/mL
  TNF-α in supernatant, Replicate 2: 35.47 pg/mL
  TNF-α in supernatant, Replicate 3: 32.24 pg/mL
[4]; [14]
  TNF-α in supernatant, Mean ± S.D.: 33.46 ± 1.75 pg/mL
[4]; [15]
  decrease of TNF-α concentration: 44%
[1]
  Neurite Branching Data, Plate 1, Mean ± S.D.: 46742.8 ± 7107.5 per mm^2
  Neurite length - Baseline-corrected AUC (0-72 h), Mean: 853.7 mm/mm^2
  Neurite length data, plate 1, Mean: 1681.1 mm/mm^2
  Number of branch points per mm^2 - Baseline-corrected AUC (0-72 h), Mean: 41712.8 per mm^2
  number of branches as compared with MPP+ alone: significantly increased
  number of branches increased as compared with MPP+ alone (control/MPP+): 89%
  protective effect against MPP+: showed the protective effect, but to a substantially lesser effect than when combined; also recorded: showed protective effect, but it was not statistically significant
[2]
  Cytolysis, %, Plate 1, Mean ± S.D.: 72.06 ± 1.77%
[5]; [13]
  IL-6 in supernatant, Replicate 1: 396.23 pg/mL
  IL-6 in supernatant, Replicate 2: 363.94 pg/mL
  IL-6 in supernatant, Replicate 3: 305.53 pg/mL
[5]; [14]
  IL-6 in supernatant, Mean ± S.D.: 355.23 ± 45.97 pg/mL
[5]
  anti-inflammatory effect on activated microglia, all three cytokines: Anti-inflammatory effects of the individual drugs were observed
[5]; [15]
  decrease of IL-6 concentration: 49%
[6]
  disease progression: halted the disease progression

## CCOC(=O)C1=CCCC[C@H]1S(=O)(=O)Nc1ccc(F)cc1Cl [TAK-242]
[3]; [15]
  concentration of GROα: significantly decreased
[4]; [15]
  concentration of TNF-α: significantly decreased
[7]
  concentration of IL-1β: significantly decreased
[5]; [15]
  concentration of IL-6: significantly decreased

## Nc1c(Br)cc(Br)cc1CN[C@H]1CC[C@H](O)CC1 [AMB, Ambroxol]
[1]; MPP+ 100 μM, Table 5.1 (FIG. 5A), conditions 17-28, AUC of kinetic data
  Neurite Length Data, Mean ± S.D.: 763.9 ± 209.8 mm/mm^2
[1]; MPP+ 100 μM, Table 5.2 (FIG. 5B), conditions 17-28, AUC of kinetic data
  Neurite Branching Data, Mean ± S.D.: 20281.6 ± 8723.4 per mm^2
[1]; MPP+ 100 μM, Table 6.2 (FIG. 7A), followed 72 hours, PCI 30 μM
  Neurite length, plate 2, Mean ± S.D.: 1332.1 ± 174.8 mm/mm^2
[1]; MPP+ 100 μM
  effects on neurite outgrowth: no significant effects
[2]; MPP+ 100 μM, Table 8.2 (FIG. 7C), PCI 30 μM
  Cytolysis, %, Plate 2, Mean ± S.D.: 73.29 ± 2.23%

## C[C@H](CCC(=O)NCCS(=O)(=O)O)[C@H]1CC[C@H]2[C@@H]3[C@@H](O)C[C@@H]4C[C@H](O)CC[C@]4(C)[C@H]3CC[C@]12C [TUDCA, tauroursodeoxycholic acid]
[8]
  PrP conversion: substantially reduced PrP conversion
[1]; [10]
  Neurite length data, plate 1, Mean: 1825.9 mm/mm^2
[1]; [11]
  Neurite Branching Data, Plate 1, Mean ± S.D.: 58836.3 ± 9596.4 per mm^2
[1]; MPP+ 100 μM, conditions 29-53, followed 72 hours (FIG. 6A, 7A)
  neurite length increased as compared with MPP+ alone: 43%
[1]; MPP+ 100 μM, conditions 29-53, followed 72 hours (FIG. 6B, 7B)
  number of branches increased as compared with MPP+ alone: 60%
[2]; [12]
  Cytolysis, %, Plate 1, Mean ± S.D.: 70.69 ± 2.02%
[5]
  anti-inflammatory effect on activated microglia, all three cytokines: Anti-inflammatory effects of the individual drugs were observed
[9]
  neurodegeneration of the nigral dopaminergic neurons caused by MPTP: significantly reduced neurodegeneration

## CC(C)(O)c1coc(S(=O)(=O)NC(=O)Nc2c3c(cc4c2CCC4)CCC3)c1 [MCC950]
[4]; [15]
  concentration of TNF-α: significantly decreased
[7]
  concentration of IL-1β: significantly decreased
[5]; [15]
  concentration of IL-6: significantly decreased
